Experiment [1] concerns the target T1, Human Serotonin Transporter (hSERT) (Homo sapiens, UniProt P31645).
T1 construct: expressed in transfected cells; host or cells: HEK-293, membrane preparation
Kind of experiment: hSERT scintillation proximity assay (SPA), competition with [3H]-Citalopram. The format is binding. To be noted: pKi, membranes of HEK-293 cells expressing recombinant hSERT, read-out: SERT (converted). The text has this:
Screening for Human Serotonin Transporter (hSERT) Antagonists Using a Scintillation Proximity Assay (SPA)
The screening assay of this example was used to determine the affinity of ligands at the hSERT transporter by competition with [^3H]-Citalopram.
Scintillation Proximity Assay (SPA) works by bringing radioligand within close proximity to the bead's scintillant to stimulate light emission. In this assay, the receptor-containing membranes were pre-coupled to the SPA beads and the binding of the appropriate radioligand to the transporter was measured. The light emission was proportional to the amount of bound radioligand. Unbound radioligand produced no signal as a result of distant proximity to scintillant (lack of energy transfer).
HEK-293 cells (Tatsumi et al., Eur. J. Pharmacol. 1997, 30, 249-258) stably expressing recombinant hSERT were maintained with media (DMEM high glucose with 10% FBS, 300 ug/ml G418 and 2 mM L-Glutamine) and incubated at 37° C. with 5% CO2. Cells are released from culture flasks using PBS for 1-2 minutes. The cells were subsequently centrifuged at 1000 g′ s for 5 minutes and resuspended in PBS prior to being used in the membrane preparation.
(§1) Cell membranes were prepared using a membrane preparation buffer of 50 mM TRIS (pH 7.4). Cell membranes were prepared from a single cube (7.5×10^9 cells total). Cells were homogenized using a Polytron (setting medium for a 4 second burst). The homogenate was then centrifuged at 48,000×g for 15 minutes, the supernatant subsequently removed and discarded, and the pellet resuspended with fresh buffer. After a second centrifugation, the pellet was re-homogenized and brought to a final volume determined during the assay. Typically, membrane portions were aliquoted in 3 mg/ml (w:v). and stored at −80° C.
For Scintillation Proximity Assay IC50/Ki determination, 50 mM Tris-HCl and 300 mM NaCl, (pH 7.4) buffers were utilized. Compounds of the invention were diluted from 10 mM to 0.1 nM FAC (10 point curves, whole log/half log dilutions) via a Beckman Biomek 2000 using a serial dilution protocol. The test compounds were then transferred (20 ul/well) and the [^3H]-Citalopram radioligand was added at 50 ul/well. Membrane and beads were prepared to a ratio of 10 ug:0.7 mg, with 0.7 mg PVT-WGA Amersham beads (Cat# RPQ0282V) added per well. 130 ul of the membrane: bead mixture was added to the assay plate. The mixtures were allowed to stand at room temperature for one hour, and were then counted on a Packard TopCount LCS, a generic Scintillation Proximity Assay counting protocol settings (Energy Range: Low, Efficiency Mode: Normal, Region A: 1.50-35.00, Region B: 1.50-256.00, Count Time (min.): 0.40, Background Subtract: none, Half-Life Correction: no, Quench Indicator: tSIS, Platemap blank subtraction: No, Cross talk reduction: Off).
The % inhibition was calculated for each compound tested [(Compound counts per minute (CPM) at maximum concentration-Non-Specific CPM)/Total CPM*100]. The concentration producing 50% inhibition (IC50) was determined using an iterative non-linear curve fitting technique with Activity Base/Xlfit using the following equation:
(§2) where max=total binding, min=non specific binding, x=concentration (M) of the tested compound and n=Hill slope. The inhibition dissociation constant (Ki) of each compound was determined according to the method of Cheng-Prusoff and then converted into negative logarithm (pKi) of the Ki.
On the technique in general: In a scintillation proximity assay essentially only radioactivity close to the scintillant gives light.

In experiment [2] the target is T2, Human Norepinephrine Transporter (hNET) (Homo sapiens, UniProt P23975).
T2 construct: expressed in transfected cells; host or cells: HEK-293 (Clone: HEK-hNET #2), membrane preparation
Kind of experiment: hNET scintillation proximity assay (SPA), competition with [3H]-Nisoxetine. The class given is binding. To be noted: pKi, membranes of HEK-293 cells expressing recombinant hNET, read-out: NET (converted). The method, then: Screening for compounds active at Human Norepinephrine Transporter (hNET) Using a Scintillation Proximity Assay (SPA)
This assay was used to determine the affinity of ligands for the hNET transporter by competition with [^3H]-Nisoxetine. As in the hSERT assay of the above example, receptor-containing membranes were pre-coupled to the SPA beads and the binding of the appropriate radioligand to the transporter was measured. The light emission was proportional to the amount of bound radioligand, with unbound radioligand producing no signal.
HEK-293 cells (Tatsumi et al., Eur. J. Pharmacol. 1997, 30, 249-258) stably expressing recombinant hNET (Clone: HEK-hNET #2) were maintained with media (DMEM hi glucose with 10% FBS, 300 ug/ml G418 and 2 mM L-Glutamine) and incubated at 37° C. with 5% CO2. Cells were released from culture flasks using PBS for 1-2 minutes. The cells were subsequently centrifuged at 1000 g′ s for 5 minutes and resuspended in PBS prior to being used in the membrane preparation.
as §1, with “3-6” for “3”
^3[H] Nisoxetine radioligand (Amersham Cat. # TRK942 or Perkin Elmer Cat. # NET1084, specific activity: 70-87 Ci/mmol, stock concentration: 1.22e-5 M, final concentration: 8.25e-9 M), and 50 mM Tris-HCl, 300 mM NaCl, (pH 7.4) buffers were used for Scintillation Proximity Assay IC50/Ki determination. Compounds of the invention were diluted from 10 mM to 0.1 nM FAC (10 point curves, whole log/half log dilutions) via a Beckman Biomek 2000 using a serial dilution protocol. The test compounds were then transferred (20 ul/well) and the radioligand was added at 50 ul/well. Membrane and beads were prepared to a ratio of […], with 0.7 mg PVT-WGA Amersham beads (Cat# RPQ0282V) added per well. […] of the membrane: bead mixture was added to the assay plate. The mixtures were allowed to stand at room temperature for one hour, and were then counted on a Packard TopCount LCS, a generic SPA counting protocol settings (Energy Range: Low, Efficiency Mode: Normal, Region A: 1.50-35.00, Region B: 1.50-256.00, Count Time (min.): 0.40, Background Subtract: none, Half-Life Correction: no, Quench Indicator: tSIS, Platemap blank subtraction: No, Cross talk reduction: Off).
The % inhibition was calculated for each compound tested [(Compound CPM at maximum concentration-Non-Specific CPM)/Total CPM*100]. The concentration producing 50% inhibition (IC50) was determined using an iterative non-linear curve fitting technique with Activity Base/Xlfit using the following equation:
as §2

Data on 22 compounds can be found in patent US20110136787A1, “DIPHENYL AZEPANE, DIAZEPANE AND OXAZEPANE DERIVATIVES AND USES THEREOF” (priority 2009, published 2011).

T1 sequence (P31645 whole entry): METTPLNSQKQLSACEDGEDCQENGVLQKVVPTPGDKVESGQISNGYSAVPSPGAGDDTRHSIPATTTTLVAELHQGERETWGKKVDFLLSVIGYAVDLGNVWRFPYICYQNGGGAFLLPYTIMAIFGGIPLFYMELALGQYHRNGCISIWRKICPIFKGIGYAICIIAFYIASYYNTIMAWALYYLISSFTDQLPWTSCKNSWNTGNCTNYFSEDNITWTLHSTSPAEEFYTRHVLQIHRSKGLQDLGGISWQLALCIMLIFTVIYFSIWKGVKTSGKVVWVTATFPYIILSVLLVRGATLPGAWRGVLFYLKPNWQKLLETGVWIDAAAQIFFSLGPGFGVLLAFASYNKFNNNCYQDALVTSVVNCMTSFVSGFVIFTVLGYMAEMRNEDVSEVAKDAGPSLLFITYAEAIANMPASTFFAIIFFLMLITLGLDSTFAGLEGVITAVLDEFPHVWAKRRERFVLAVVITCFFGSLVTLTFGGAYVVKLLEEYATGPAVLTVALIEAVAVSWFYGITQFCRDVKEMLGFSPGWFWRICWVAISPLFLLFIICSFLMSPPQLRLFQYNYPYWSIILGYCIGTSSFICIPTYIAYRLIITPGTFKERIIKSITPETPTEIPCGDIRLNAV
T2 sequence (P23975 whole entry): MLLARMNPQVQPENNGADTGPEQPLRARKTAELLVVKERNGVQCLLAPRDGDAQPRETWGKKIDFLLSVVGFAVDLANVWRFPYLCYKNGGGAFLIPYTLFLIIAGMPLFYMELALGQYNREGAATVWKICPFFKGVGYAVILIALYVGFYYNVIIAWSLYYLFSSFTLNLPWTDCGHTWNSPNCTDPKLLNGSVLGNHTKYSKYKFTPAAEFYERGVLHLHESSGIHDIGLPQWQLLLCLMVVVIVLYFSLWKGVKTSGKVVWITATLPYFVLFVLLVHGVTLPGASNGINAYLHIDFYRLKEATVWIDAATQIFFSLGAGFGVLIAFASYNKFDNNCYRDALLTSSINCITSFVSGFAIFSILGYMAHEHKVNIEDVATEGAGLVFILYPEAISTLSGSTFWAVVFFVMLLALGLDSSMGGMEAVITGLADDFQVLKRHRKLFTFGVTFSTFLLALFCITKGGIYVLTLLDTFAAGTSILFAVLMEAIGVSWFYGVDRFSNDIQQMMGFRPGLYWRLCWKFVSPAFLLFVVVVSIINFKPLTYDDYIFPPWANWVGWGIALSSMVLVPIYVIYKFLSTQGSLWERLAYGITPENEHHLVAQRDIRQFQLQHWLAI

With `c1ccc([C@H]2CCNCC[C@H]2c2ccccc2)cc1` [Compound 1, (4S,5R)-4,5-Diphenyl-azepane], the values for the Ki in experiment [1] and in experiment [2] were 9.33 nM and 124 nM, respectively. Take `COc1ccccc1[C@H]1CCNCC[C@H]1c1ccccc1` [Compound 2, (4S,5R)-4-(2-Methoxy-phenyl)-5-phenyl-azepane]: the Ki in experiment [1] was 3.98 nM; in experiment [2] it was 30.9 nM. On to `c1ccc([C@H]2CCCNC[C@@H]2c2ccccc2)cc1` [Compound 3, (3S,4S)-3,4-Diphenyl-azepane], for which the values for the Ki in experiment [1] and in experiment [2] were 226 nM and 77.2 nM, respectively. As to `c1ccc([C@H]2CCNCC[C@@H]2c2ccccc2)cc1` [Compound 4, (4S,5S)-4,5-Diphenyl-azepane], the Ki in experiment [1] is 468 nM; in experiment [2], 741 nM. For the compound `c1ccc([C@H]2CNCCO[C@@H]2c2ccccc2)cc1` [Compound 5, (6S,7S)-6,7-Diphenyl-[1,4]oxazepane], the Ki in experiment [1] was 684 nM; in experiment [2], 133 nM. For the compound `c1ccc([C@H]2CNCCO[C@H]2c2ccccc2)cc1` [Compound 6, (6S,7R)-6,7-Diphenyl-[1,4]oxazepane], in experiment [2], the Ki was 417 nM. On to `COc1ccccc1[C@@H]1OCCNC[C@@H]1c1ccccc1` [Compound 7, (6S,7R)-7-(2-Methoxy-phenyl)-6-phenyl-[1,4]oxazepane], for which the Ki is 398 nM in experiment [1] and 106 nM in experiment [2]. With `COc1ccc([C@@H]2OCCNC[C@@H]2c2ccccc2)cc1` [Compound 8, (6S,7R)-7-(4-Methoxy-phenyl)-6-phenyl-[1,4]oxazepane], in experiment [1], the Ki was 34.7 nM. For `Fc1ccccc1[C@@H]1OCCNC[C@@H]1c1ccccc1` [Compound 9, (6S,7R)-7-(2-Fluoro-phenyl)-6-phenyl-[1,4]oxazepane], the results for the Ki in experiment [1] and in experiment [2] were 398 nM and 275 nM, respectively. In the same order, the values of `Fc1ccc([C@@H]2OCCNC[C@@H]2c2ccccc2)cc1` [Compound 10, (6S,7R)-7-(4-Fluoro-phenyl)-6-phenyl-[1,4]oxazepane] are 234 nM and 432 nM. Turning to `c1ccc(C2CNCCCN2c2ccccc2)cc1` (centres unmarked) [Compound 11, 1,2-Diphenyl-[1,4]diazepane], the Ki was 785 nM in experiment [1] and 282 nM in experiment [2]. With `c1ccc(C2CCNCCN2c2ccccc2)cc1` (centres unmarked) [Compound 12, 1,7-Diphenyl-[1,4]diazepane], the Ki was 407 nM in experiment [1] and 335 nM in experiment [2]. `COc1ccc(C2CCNCCN2c2ccccc2)cc1` (centres unmarked) [Compound 13, 7-(4-Methoxy-phenyl)-1-phenyl-[1,4]diazepane]: the Ki is 105 nM in experiment [1] and 676 nM in experiment [2]. In the case of `COc1ccc(C2CNCCCN2c2ccccc2)cc1` (centres unmarked) [Compound 14, 2-(4-Methoxy-phenyl)-1-phenyl-[1,4]diazepane], the Ki in experiment [1] is 164 nM. `Clc1ccc(C2CCNCCN2c2ccccc2)cc1` (centres unmarked) [Compound 15, 7-(4-Chloro-phenyl)-1-phenyl-[1,4]diazepane]: the Ki is 407 nM in experiment [1] and 229 nM in experiment [2]. In the case of `Clc1ccc(C2CNCCCN2c2ccccc2)cc1` (centres unmarked) [Compound 16, 2-(4-Chloro-phenyl)-1-phenyl-[1,4]diazepane], the Ki is 339 nM in experiment [1] and 263 nM in experiment [2]. For the compound `COc1ccccc1C1CCNCCN1c1ccccc1` (centres unmarked) [Compound 17, 7-(2-Methoxy-phenyl)-1-phenyl-[1,4]diazepane], the Ki in experiment [1] is 170 nM; in experiment [2], 422 nM. Consider `COc1ccccc1C1CNCCCN1c1ccccc1` (centres unmarked) [Compound 18, 2-(2-Methoxy-phenyl)-1-phenyl-[1,4]diazepane], for which the Ki in experiment [1] is 1100 nM; in experiment [2], 2040 nM.

For the compound `Clc1ccccc1C1CCNCCN1c1ccccc1` (centres unmarked) [Compound 19, 7-(2-Chloro-phenyl)-1-phenyl-[1,4]diazepane], the values for the Ki in experiment [1] and in experiment [2] were 73.3 nM and 219 nM, respectively. `Clc1ccccc1C1CNCCCN1c1ccccc1` (centres unmarked) [Compound 20, 2-(2-Chloro-phenyl)-1-phenyl-[1,4]diazepane]: the Ki in experiment [1] was 394 nM. The same measure, in the same setting: the figure for `Fc1ccc(C2CCNCCN2c2ccccc2)cc1` (centres unmarked) [Compound 23, 7-(4-Fluoro-phenyl)-1-phenyl-[1,4]diazepane] is 3630 nM. For the compound `Fc1ccc(C2CNCCCN2c2ccccc2)cc1` (centres unmarked) [Compound 24, 2-(4-Fluoro-phenyl)-1-phenyl-[1,4]diazepane], the Ki in experiment [2] was 214 nM.
